Data on two compounds can be found in patent publication US9845482B2, “Compositions and methods for enhancing bioenergetic status in female germ cells” (The General Hospital Corporation, priority 2011, dated 2017).

One assay concerns OSCs from mice. Kind of assay: Screen of mouse OSCs for compounds that enhance mitochondrial function (mtDNA, ATP, mitochondrial mass, membrane potential, gene expression). The settings on record: 24 hours. The assay is classed as cell-based. The text has this:
Female infertility due to chemotherapy, aging and premature ovarian failure (POF) is due in part to a decline in mitochondrial function in oocytes and OSCs. Accordingly, OSCs from mice were used to screen for small compounds that enhance mitochondrial function (“bioenergetic status”) in female germline cells. Assays for enhancing mitochondrial function included mtDNA content, ATP, NAD+/NADH, mitochondrial mass, mitochondrial membrane potential, and gene expression of known mitochondrial mass regulators and electron transport chain components.
All the compounds were dissolved in DMSO. For screening purposes the cells were treated with the vehicle (0.001% DMSO) or with 25 or 50 μM of each compound (except for berberine, which the concentrations used for the screen were 5 μM and 25 μM) for 24 hours. For validation of the top 6 hits, cells were treated with vehicle (0.001% DMSO) or either 5 or 25 μM of each compound for 24 hours. For the gene expression profile, the cells were treated with the concentration that was considered to work better in the previous validation assays.
Mitochondrial membrane potential was measured with a fluorescent probe, Tetramethylrhodamine methyl ester (TMRM) (Sigma) as described before (Rolo A. P. Biochim. Biophys. Acta 2003 1637: 127-132). Briefly the cells were loaded with 6.6 μM TMRM in HBSS buffer at 37° C. for 15 minutes in the dark. The supernatant was then aspirated, and the cells returned to the original volume with KHH. TMRM is a membrane-permeable cationic fluorophore that accumulates electrophoretically in mitochondria in proportion to their mitochondrial membrane potential (Ehrenberg B. V. et al. Biophys. J. 1988 53:785-794). Cell suspensions (200 μl containing 10^5 cells) were loaded into 96-well plates and fluorescence measured using excitation and emission wavelengths of 485 and 590 nm, respectively. Mitochondrial membrane potential was estimated, taking into account the complete depolarization caused by carbonyl cyanide p-(trifluoromethoxy)phenylhydrazone (FCCP).
For mtDNA analysis, total DNA was extracted with DNeasy blood and tissue kit (QIAGEN). mtDNA was amplified using primers specific for the mitochondrial cytochrome c oxidase subunit 2 (COX2) gene and normalized to genomic DNA by amplification of the ribosomal protein s18 (rps18) nuclear gene. Primers were designed using the IDT software (IDT).
ATP content was measured using a luciferase-based assay with a commercial kit according to the manufacturer's instructions (Roche Applied Science, Penzberg, Germany) and normalized to protein content in each sample.
Mitochondrial mass was evaluated using the fluorescent probe N-nonyl acridine orange (NAO), briefly the cells were incubated in culture media containing 10 nM of NAO for 30 minutes at 37° C. in the dark. The cells were then trypsinized and resuspended in culture media without NAO. The NAO fluorescence intensity was then determined by flow cytometry on the FACSCALIBUR® (BD Biosciences, San Jose, Calif., USA) using the 488 nm laser.
For gene expression analysis, RNA from skeletal muscle tissue and C2C12 cells were extracted with RNeasy mini kit (QIAGEN) according to the instructions and quantified using the NanoDrop 1000 spectrophotometer (Thermo Scientific). cDNA was synthesized with the iSCRIP cDNA synthesis kit (BioRad) using 200 ng of RNA. Quantitative RT-PCR reactions were performed using 1 μM of primers and LIGHTCYCLER® 480 SYBR® Green Master (Roche Applied Science, Penzberg, Germany) on an LIGHTCYCLER® 480 detection system (Roche Applied Science, Penzberg, Germany). Calculations were performed by a comparative method (2-ΔΔCT) using actin as an internal control. Primers were designed using the IDT software (IDT).

The subject of another assay is Mouse OSCs. Kind of assay: NAD+ and NADH levels in mouse OSCs treated with mitochondrial enhancers. To be noted: 24 hours. It counts as cell-based. How it is done: FIG. 35 depicts levels of NAD+ (A) and NADH (B) in OSCs treated with mitochondrial enhancers. Mouse OSCs maintained in culture (Zou et al., Nat Cell Biol 2009 11:631-636) were exposed to the indicated test compounds for 24 hours and then assessed for levels of NAD+ and NADH. Female infertility due to chemotherapy, aging and premature ovarian failure (POF) is due in part to a decline in mitochondrial function in oocytes and OSCs. Accordingly, OSCs from mice were used to screen for small compounds that enhance mitochondrial function (“bioenergetic status”) in female germline cells. Assays for enhancing mitochondrial function included mtDNA content, ATP, NAD+/NADH, mitochondrial mass, mitochondrial membrane potential, and gene expression of known mitochondrial mass regulators and electron transport chain components. All the compounds were dissolved in DMSO. For screening purposes the cells were treated with the vehicle (0.001% DMSO) or with 25 or 50 μM of each compound (except for berberine, which the concentrations used for the screen were 5 μM and 25 μM) for 24 hours. For validation of the top 6 hits, cells were treated with vehicle (0.001% DMSO) or either 5 or 25 μM of each compound for 24 hours. For the gene expression profile, the cells were treated with the concentration that was considered to work better in the previous validation assays.

Assay [1] deals with murine oogonial stem cells (OSCs). The experiment in a line: NAD+/NADH quantitation in murine OSCs treated with NMN. The assay is classed as cell-based. The settings on record: NMN added at 12 h and 6 h prior to analysis. As to the method:
FIGS. 39A-39C are graphs showing that nicotinamide mononucleotides raise cellular NAD^+ and NAD+/NADH in murine oogonial stem cells (OSCs). Oogonial stem cells were isolated from dissociated ovaries using a FACS based sorting protocol to purify OSCs free of contaminating oocytes (see Example 1). Cells were maintained in culture medium consisted of minimum essential medium α (MEMα), 10% FBS, 1 mM sodium pyruvate, 1 mM non-essential amino acids, 2 mM L-glutamine, 0.1 mM β-mercaptoethanol (Sigma Aldrich Corporation, St. Louis, Mo., USA), 10 ng/ml-1 LIF (Millipore), 1× N-2 MAX Media Supplement (R&D) 10 ng/ml EGF (Epidermal growth factor, Recombinant human; Gibco Division of ThermoFisher Scientific, Waltham, Mass., USA), 40 ng/ml human GDNF (glial cell line-derived neurotrophic factor; R&D systems), 1 ng/ml human bFGF (basic fibroblast growth factor; Gibco Division of ThermoFisher Scientific, Waltham, Mass., USA).
Oogonial stem cells were isolated from dissociated ovaries using a FACS based sorting protocol to purify OSCs free of contaminating oocytes (for details, see Example 1), Cells were maintained in culture medium consisted of minimum essential medium α (MEMα), 10% FBS, 1 mM sodium pyruvate, 1 mM […], 2 mM L-1-glutamine, 0.1 mM β-mercaptoethanol (Sigma), 10 ng/ml-1 LIF (Millipore), 1× N-2 MAX Media Supplement (R&D) 10 ng/ml EGF (Epidermal growth factor, Recombinant human; Gibco Division of Thermofisher Scientific, Waltham, Mass., USA), 40 ng/nil human GDNF (glial cell line-derived neurotrophic factor; R&D systems), 1 ng/ml human bFGF (basic fibroblast growth factor; Gibco Division of Thermofisher Scientific, Waltham, Mass., USA)
For all experiments 25,000 cells were plated in each well of a 24 well plate. Cells were allowed to attach for twenty-four hours and then were treated with NMN (β-Nicotinamide mononucleotide; Sigma). Unless otherwise stated, NMN was added twice to the cells, first at twelve hours and then again at six hours prior to analysis (12+6 h). Mitochondrial DNA Copy number was analysed as follows. Total cellular DNA was isolated from cells at the indicated time points using DNeasy Blood & Tissue Kit (Qiagen) according to the manufacturer's instructions. Mitochondrial DNA copy number was quantified using LIGHTCYCLER 480 SYBR® Green I Master (Roche Applied Science, Penzberg, Germany) using the following primers on a LIGHTCYCLER480 PCR machine (Roche Applied Science (Penzberg, Germany).
OSCs and oocytes treated with an NAD precursor (e.g. […] ie. “NMN”, see FIG. 38) had increased NAD^+, NAD^+:NADH, and mitochondrial DNA content (FIG. 40).

Assay [2] has as its system cultured murine oogonial stem cells. The experiment in a line: Spontaneous oocyte formation in cultured murine OSCs after NMN. To be noted: 25,000 OSCs per well of a 24-well plate. It counts as cell-based. As to the method: FIG. 41 is a graph showing that nicotinamide mononucleotide increases spontaneous oocyte formation in cultured murine oogonial stem cells. For assessment of spontaneous oocyte formation, each well of a 24-well plate was seeded with 25,000 OSCs, and the number of oocytes formed and released into the medium per well was assessed the second day after seeding as well as the designated time points after NMN treatment.
Each well of a 24-well plate was seeded with 25,000 OSCs. The number of oocytes formed and released into the medium per well was assessed the second day after seeding as well as the designated time points after NMN treatment. […] NMN treatment is also expected to enhance the function of OCSsOSCs, oocytes, granulose cells, and blood vessels in the ovary.

Another assay concerns murine OSCs. The experiment in a line: Mitochondrial DNA copy number in murine OSCs treated with NMN. It counts as cell-based. The text has this:
FIG. 40 is a graph showing that nicotinamide mononucleotide increases mitochondrial DNA content in murine OSCs. Total cellular DNA was isolated from cells at the indicated time points using DNEASY® Blood & Tissue Kit (Qiagen, Venlo, The Netherlands) according to the manufacturer's instructions. Mt DNA copy number was quantified using LIGHTCYCLER®480 SYBR® Green I Master (Roche Applied Science, Penzberg, Germany) using a LIGHTCYCLER®480 PCR machine (Roche Applied Science, Penzberg, Germany). […]
For all experiments 25,000 cells were plated in each well of a 24 well plate. […] Mitochondrial DNA Copy number was analysed as follows. […] Mitochondrial DNA copy number was quantified using LIGHTCYCLER 480 SYBR® Green I Master (Roche Applied Science, Penzberg, Germany) using the following primers on a LIGHTCYCLER480 PCR machine (Roche Applied Science (Penzberg, Germany).

Assay [3] concerns skeletal muscle of 24-month old mice. The experiment in a line: Mitochondrial function in vivo after NMN. To be noted: 1 week of treatment, I.P. From the text: (§1) NMN is delivered by intraperitoneal (I.P.) injection and raises NAD levels in brain, heart and skeletal muscle ˜30-100%. NMN increases mitochondrial function in C2C12 cells in a SIRT1-dependent manner (FIGS. 43C, D). sh Ct1=scrambled shRNA, Sh SIRT1=shRNA against SIRT1.
(§2) NMN and other compounds that increase NAD^+ levels are useful for increasing fertility or otherwise reducing or reversing infertility in a female subject. In one embodiment, such compounds are delivered to a subject orally, by intraperitoneal injection (IP), or subcutaneously to increase the probability that the subject will conceive and deliver healthy offspring. Systemic administration of the NAD^+ precursor NMN raised NAD^+ levels in vivo in young and old mice. Cardiac [NAD^+] declines with age. This decline in NAD^+ was reversed by NMN treatment (n=3; 200 mg·kg·d. I.P. for 1 week)(FIG. 42). […] In another embodiment, NMN and other compounds that increase NAD^+ levels are delivered to an OSC, oocyte, blasotcyst, sperm, or isolated mitochondria in vitro. For example, such compounds are delivered to a germ cell prior to, during or following IVF. In another embodiment, a compound of the invention is used to enhance the yield or preservation of mitochondria from an OSC, oocyte, blasotcyst, sperm, or isolated mitochondria in vitro.

In a further assay the test system is C2C12 cells. Kind of assay: Mitochondrial function in C2C12 cells with NMN (scrambled vs SIRT1 shRNA). The assay is classed as cell-based. The settings on record: SIRT1-dependent manner.
Excerpt: as §1

The subject of another assay is young and old mice. Kind of assay: NAD+ levels in vivo after systemic NMN. As to the method:
FIG. 42 is a graph showing that the NAD^+ precursor NMN raises NAD^+ levels in vivo in young and old mice. Cardiac [NAD^+] declines with age and is reversed by NMN treatment (n=3; 200 mg·kg·d. I.P. for 1 week).
as §1, §2

[4] abbreviates: listed as nicotinamide mononucleotides.
Setting [5] is: listed as nicotinamide mononucleotide.

Entries after “also recorded” stand apart in the source; their conditions may differ. Where two headings read alike, the source gives them in different places.

`N#CC(C#N)=Cc1ccc(O)cc1` [tyrphostin 8, 2[(4-hydroxyphenyl)methylidene]propanedinitrile]: in the assay on OSCs from mice, the mitochondrial parameters entry is recorded as “increase mitochondrial parameters in a beneficial way”. Besides, in the assay with OSCs from mice (25 or 50 μM (berberine 5 μM and 25 μM)), the “activity above the baseline (DMSO alone), scored as a positive result” value is on record as “activity above the baseline”. Also, in the assay with Mouse OSCs, the “NAD^+ levels” value is listed as “raise”.
For the compound `NC(=O)c1ccc[n+]([C@@H]2O[C@H](COP(=O)([O-])O)[C@@H](O)[C@H]2O)c1` [NMN, β-Nicotinamide mononucleotide], the “NAD+/NADH” value in assay [1] is on record as “increased”; in assay [1] (setting [4]), “raise”. For the same compound, the “cellular NAD^+” value is recorded as “increased” in assay [1] and “raise” in assay [1] (setting [4]). The “spontaneous oocyte formation (rate of egg formation, EFA)” value in assay [2] is given as “increased”; in assay [2] (setting [5]), “increases”. For the same compound, the “mitochondrial DNA content” value was “increased” with murine OSCs and “increases” with murine OSCs (setting [5]). Moreover, the “mitochondrial function in vivo (decline in skeletal muscle of 24-month old mice)” value in assay [3] is recorded as “restorative effect; also recorded: completely reversed”. Also, the “mitochondrial function in C2C12 cells” value in the assay on C2C12 cells is “increases”. Moreover, the “decline of cardiac [NAD^+] with age” value in the assay on young and old mice (200 mg·kg·d. I.P. for 1 week, n=3) is “reversed”. Besides, in the assay with young and old mice (intraperitoneal (I.P.) injection), the “raise of NAD levels in brain, heart and skeletal muscle” value is 30-100%. Besides, in the assay on young and old mice (young and old mice, systemic administration), the “NAD^+ levels in vivo” value is on record as “raises”.
